Assay results as given in US10273242B2, “Compound inhibiting activities of BTK and/or JAK3 kinases” (BEIJING HANMI PHARMACEUTICAL CO., LTD., priority 2013, dated 2019).

Key:
JAK3 kinase = target: T1, JAK3 kinase (Homo sapiens, UniProt P52333); experiment: JAK3 kinase activity inhibition assay (ADP-Glo); assay type: biochemical; conditions: ATP 10 μM
T1 construct: purchased SignalChem J03-11G
Experimental: The JAK3 kinase (purchased from SignalChem, No.: J03-11G) was diluted with reaction buffer (40 mM Tris-HCl, pH 7.5; 20 mM MgCl2, 0.1 mg/ml BSA; 1 mM DTT) to 2 times of the final concentration (which is 0.5 ng/μL) and added with 5 μL/well to a 96-well plate. The compounds of the present invention were serial diluted with deionized water to four times (i.e., 40 μM, 4 μM, 0.4 μM, 80 nM, 16 nM, 3.2 nM, respectively) of the final concentrations (10 μM, 1 μM, 0.1 μM, 20 nM, 4 nM, 0.8 nM, respectively), and added with 2.5 μL/well to the test wells of the 96-well plate. After incubation at 25° C. for 10 minutes, 10 μM of ATP (purchased from Promega, No.: V9102) and 0.2 μg/μL of Poly E4Y1 (purchased from Sigma, No.: P0275-25MG) were added at 2.5 μL/well and reacted at 25° C. for 60 minutes. After the reaction was completed, 10 μL of the ADP-Glo reagent (ADP-Glo™ kinase assay kit, purchased from Promega, No.: V9102) was added to each well and reacted at 25° C. for 40 minutes. Then 20 μL of the ADP-Glo kinase detection reagent was added to each well and reacted at 25° C. for 30 minutes. The kinase activity was detected by luminescence using the ADP-Glo kinase assay kit according to the manufacture's instruction, and IC50 values of the compounds of the present invention were calculated.

BTK kinase = target: T2, BTK kinase (Homo sapiens, UniProt Q06187); experiment: BTK kinase activity inhibition assay (ADP-Glo); assay type: biochemical; conditions: ATP 50 μM
T2 construct: purchased Invitrogen PV3363
Experimental: The BTK kinase (purchased from Invitrogen, No.: PV3363) was diluted with reaction buffer (40 mM Tris-HCl, pH 7.5; 20 mM MgCl2, 0.1 mg/ml BSA; 1 mM DTT; 2 mM MnCl2) to 2 times of the final concentration (which is 1.1 ng/μL) and added with 5 μL/well to a 96-well plate. The compounds of the present invention were serial diluted with deionized water to four times (i.e., 40 μM, 4 μM, 0.4 μM, 80 nM, 16 nM, 3.2 nM, respectively) of the final concentrations (10 μM, 1 μM, 0.1 μM, 20 nM, 4 nM, 0.8 nM, respectively), and added at 2.5 μL/well to the test wells of the 96-well plate. After incubation at 25° C. for 10 minutes, ATP (50 μM) (purchased from Promega, No.: V9102) and 0.2 μg/μL of Poly E4Y1 (purchased from Sigma, No.: P0275-25MG) were added with 2.5 μL/well and incubated at 25° C. for 120 minutes. After the reaction was completed, 10 μL of the ADP-Glo reagent (ADP-Glo™ kinase assay kit, purchased from Promega, No.: V9102) was added to each well, and reacted at 25° C. for 40 minutes. Then 20 μL of the ADP-Glo kinase detection reagent was added to each well and reacted at 25° C. for 30 minutes. The kinase activity was detected by luminescence using the ADP-Glo kinase assay kit according to the manufacture's instruction, and IC50 values of the compounds of the present invention were calculated.

CTLL-2 cells = experiment: IL-2 induced CTLL-2 cell proliferation assay (CCK-8); assay type: cell-based; conditions: Mus musculus, IL-2 induced proliferation, 24 hours
Experimental: The compounds of the present invention were serial diluted with RPMI-1640 complete medium (purchased from Gibco, No.: 22440) to three times (i.e., 3 μM, 0.6 μM, 120 nM, 24 nM, 4.8 nM, 0.96 nM, respectively) of the final concentrations (1 μM, 0.2 μM, 40 nM, 8 nM, 1.6 nM, 0.32 nM, respectively), and added at 50 μL/well to the test wells of a 96-well plate. Control wells with IL-2 (referred to as IL-2^+) (IL-2 was purchased from R & D, No.: 402-ML-020/CF) and without IL-2 (referred to as IL-2^−) (with addition of 50 μL of the medium). CTLL-2 cells (purchased from ATCC, No.: TIB-214) at the logarithmic growth phase were rinsed with PBS buffer (pH 7.2), then resuspended in RPMI-1640 complete medium without IL-2, and seeded at 50000 cells/50 μL/well in the 96-well plate. The plate was placed at 37° C., 5% CO2 and pre-incubated for 1 hour. Then, to the test wells and the IL-2^+ control well RPMI-1640 complete medium containing IL-2 (50 μL/well) was added, while to the IL-2^− control well RPMI-1640 complete medium without IL-2 (50 μL/well) was added. The cells were stimulated for 24 hours at 37° C., 5% CO2. After this, the 96-well plate was taken out from the incubator. […] Absorption was determined at 450 nm of wavelength, and IC50 values of the compounds of the present invention were thereby calculated.

T1 sequence (P52333 781-1124 limits assumed): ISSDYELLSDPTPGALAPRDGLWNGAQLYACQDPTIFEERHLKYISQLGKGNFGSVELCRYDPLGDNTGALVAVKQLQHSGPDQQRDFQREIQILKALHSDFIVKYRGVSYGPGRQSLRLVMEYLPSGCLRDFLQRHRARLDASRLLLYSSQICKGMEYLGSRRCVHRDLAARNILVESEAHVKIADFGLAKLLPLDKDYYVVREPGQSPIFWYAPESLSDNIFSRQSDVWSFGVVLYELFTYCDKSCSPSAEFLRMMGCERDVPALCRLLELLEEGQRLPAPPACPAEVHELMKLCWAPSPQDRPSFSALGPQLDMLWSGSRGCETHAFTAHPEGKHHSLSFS
T2 sequence (Q06187 whole entry): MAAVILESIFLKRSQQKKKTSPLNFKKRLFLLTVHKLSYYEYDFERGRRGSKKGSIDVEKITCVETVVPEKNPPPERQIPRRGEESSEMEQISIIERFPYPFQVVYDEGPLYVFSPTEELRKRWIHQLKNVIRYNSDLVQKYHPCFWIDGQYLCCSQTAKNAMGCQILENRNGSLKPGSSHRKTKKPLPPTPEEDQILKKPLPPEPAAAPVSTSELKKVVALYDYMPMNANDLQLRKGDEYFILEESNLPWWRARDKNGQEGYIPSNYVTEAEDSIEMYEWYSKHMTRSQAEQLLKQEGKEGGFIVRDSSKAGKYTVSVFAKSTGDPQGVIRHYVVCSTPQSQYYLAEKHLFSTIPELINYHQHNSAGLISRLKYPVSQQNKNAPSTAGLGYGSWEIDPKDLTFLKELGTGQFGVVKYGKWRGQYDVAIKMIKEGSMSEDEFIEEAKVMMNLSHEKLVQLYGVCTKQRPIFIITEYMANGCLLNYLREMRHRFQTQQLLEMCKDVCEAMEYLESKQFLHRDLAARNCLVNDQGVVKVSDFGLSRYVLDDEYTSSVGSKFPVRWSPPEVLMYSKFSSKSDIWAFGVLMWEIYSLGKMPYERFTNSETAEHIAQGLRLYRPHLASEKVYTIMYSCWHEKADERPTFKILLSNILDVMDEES

| IC50 (JAK3 kinase) [nM] | IC50 (BTK kinase) [nM] | SMILES | IC50 (CTLL-2 cells) [nM] |
| --- | --- | --- | --- |
| 10 to 100 | ≤ 50 | C=CC(=O)N1CC[C@@H](Nc2nc(Nc3cn[nH]c3)nc3ccsc23)C1 [Example 77] |  |
| 10 to 100 | ≤ 50 | C=CC(=O)N1CCC[C@@H](Nc2nc(Nc3cn[nH]c3)nc3ccsc23)C1 [Example 81] |  |
| 10 to 100 | ≤ 50 | C=CC(=O)N1CCC[C@@H](Nc2nc(Nc3cnn(C)c3)nn3cccc23)C1 [Example 135] |  |
| 10 to 100 | ≤ 50 | C=CC(=O)N1CCC[C@@H](Nc2nc(Nc3cnn(CCOC)c3)nc3ccsc23)C1 [Example 131] |  |
| 10 to 100 | 50 to 100 | C=CC(=O)N1CC[C@@H](Nc2nc(Nc3cnoc3)nc3ccsc23)C1 [Example 78] |  |
| 10 to 100 | ≤ 50 | C=CC(=O)N1CCC[C@@H](Nc2nc(Nc3cnn(C)c3)nc3ccoc23)C1 [Example 95] |  |
| ≤ 10 | ≤ 50 | C=CC(=O)N1CCC[C@@H](Nc2nc(Nc3cc(C)ns3)nn3cccc23)C1 [Example 134, (R)-1-(3-((2-((3-methyl-isothiazol-5-yl)amino)pyrrolo[2,1-f][1,2,4]triazin-4-yl)amino)piperidin-1-yl)prop-2-en-1-one] | ≤ 100 |
| 10 to 100 | ≤ 50 | C=CC(=O)N1CC(CNc2nc(Nc3cccs3)nc3ccsc23)C1 [Example 72] |  |
| 10 to 100 | ≤ 50 | C=CC(=O)N1CC[C@@H](Nc2nc(Nc3cccs3)nc3ccsc23)C1 [Example 76] |  |
| ≤ 10 | ≤ 50 | C=CC(=O)N1CC(CNc2nc(Nc3cc(C)ns3)nc3ccsc23)C1 [Example 71] |  |
| 10 to 100 | ≤ 50 | C=CC(=O)N1CCC[C@@H](Nc2nc(Nc3cnn(C4CCCC4)c3)nc3ccsc23)C1 [Example 130] |  |
| 10 to 100 | ≤ 50 | C=CC(=O)N1CC(CNc2nc(Nc3cnn(C4CCCC4)c3)nc3ccsc23)C1 [Example 112] |  |
| 10 to 100 | 100 to 1000 | C=CC(=O)N1CC[C@@H](Nc2nc(Nc3cc(C)no3)nc3ccsc23)C1 [Example 79] |  |
| ≤ 10 | ≤ 50 | C=CC(=O)N1CCC[C@@H](Nc2nc(Nc3cnoc3)nc3ccsc23)C1 [Example 83] |  |
| 10 to 100 | ≤ 50 | C=CC(=O)N1CCC[C@@H](Nc2nc(Nc3cccs3)nc3ccsc23)C1 [Example 84] |  |
| 10 to 100 | ≤ 50 | C=CC(=O)N1CC(CNc2nc(Nc3cnn(C4CCC4)c3)nc3ccsc23)C1 [Example 111] |  |
| 10 to 100 | ≤ 50 | C=CC(=O)N1CC[C@@H](Nc2nc(Nc3cnn(CCN4CCOCC4)c3)nc3ccsc23)C1 [Example 126] |  |

| IC50 (JAK3 kinase) [nM] | IC50 (BTK kinase) [nM] | SMILES | IC50 (CTLL-2 cells) [nM] |
| --- | --- | --- | --- |
| 10 to 100 | ≤ 50 | C=CC(=O)N1CC[C@@H](Nc2nc(Nc3cnn(C(C)C)c3)nc3ccsc23)C1 [Example 119] |  |
| 10 to 100 | ≤ 50 | C=CC(=O)N1CC(CNc2nc(Nc3cnn(C(C)=O)c3)nc3ccsc23)C1 [Example 116] |  |
| 10 to 100 | ≤ 50 | C=CC(=O)N1CC(CNc2nc(Nc3cnn(CCOC)c3)nc3ccsc23)C1 [Example 115] |  |
| 10 to 100 | ≤ 50 | C=CC(=O)N1CC[C@@H](Nc2nc(Nc3cc(C)ns3)nc3sccc23)C1 [Example 102] |  |
| 100 to 1000 | 50 to 100 | C=CC(=O)N1CC(CNc2nc(Nc3nccs3)nc3ccsc23)C1 [Example 74] |  |
| 10 to 100 | 50 to 100 | C=CC(=O)N1CC(CNc2nc(Nc3cc(C(C)C)no3)nc3ccsc23)C1 [Example 70] |  |
| 10 to 100 | ≤ 50 | C=CC(=O)N1CC[C@@H](Nc2nc(Nc3cnn(C)c3)nn3cccc23)C1 [Example 138] |  |
| 10 to 100 | 50 to 100 | C=CC(=O)N1CC(CNc2nc(Nc3cnn(C)c3)nc3sccc23)C1 [Example 99, 1-(3-(((2-((1-methyl-1H-pyrazol-4-yl)amino)thieno[2,3-d]pyrimidin-4-yl)amino)methyl)azetidin-1-yl)prop-2-en-1-one] |  |
| 10 to 100 | ≤ 50 | C=CC(=O)N1CC(CNc2nc(Nc3cc(C)no3)nc3ccsc23)C1 [Example 69] |  |
| ≤ 10 | ≤ 50 | C=CC(=O)N1CC[C@@H](Nc2nc(Nc3cc(C)ns3)nc3ccoc23)C1 [Example 94] |  |
| ≤ 10 | ≤ 50 | C=CC(=O)N1CC(CNc2nc(Nc3cnn(C(C)C)c3)nc3ccsc23)C1 [Example 108] |  |
| 10 to 100 | ≤ 50 | C=CC(=O)N1CCC[C@@H](Nc2nc(Nc3cnn(C4CCC4)c3)nc3ccsc23)C1 [Example 129] |  |
| 100 to 1000 | ≤ 50 | C=CC(=O)N1CCC[C@@H](Nc2nc(Nc3cnn(C)c3)nc3sccc23)C1 [Example 103] |  |
| 10 to 100 | ≤ 50 | C=CC(=O)N1CC[C@@H](Nc2nc(Nc3cnn(CCCOC)c3)nc3ccsc23)C1 [Example 123] |  |
| 10 to 100 | ≤ 50 | C=CC(=O)N1CC[C@@H](Nc2nc(Nc3cnn(C)c3)nc3ccsc23)C1 [Example 75] |  |
| 10 to 100 | ≤ 50 | C=CC(=O)N1CC(CNc2nc(Nc3cnn(COC)c3)nc3ccsc23)C1 [Example 114] |  |
| ≤ 10 | ≤ 50 | C=CC(=O)N1CC[C@@H](Nc2nc(Nc3cc(C)ns3)nn3cccc23)C1 [Example 137] | 100 to 1000 |
